Test results taken from ChEMBL document CHEMBL3885881, “DrugMatrix”.

Species on record: Rattus norvegicus
Experiment: DrugMatrix - Regimen: Daily Repeat
Assay type: toxicity, organism-based, Sprague-Dawley
Set-up: regimen Daily Repeat, gender Male, age 6-8 weeks
Conditions: in vivo, po, route oral GAVAGE, […]; for ABSOLUTE BASOPHIL / ABSOLUTE EOSINOPHIL / ABSOLUTE LYMPHOCYTE / ABSOLUTE MONOCYTE / ABSOLUTE SEGMENTED NEUTROPHIL / BASOPHIL / EOSINOPHIL / ERYTHROCYTE COUNT / HEMATOCRIT / HEMOGLOBIN / LEUKOCYTE COUNT / LYMPHOCYTE / MEAN CORPUSCULAR HEMOGLOBIN / MEAN CORPUSCULAR HEMOGLOBIN CONCENTRATION / MEAN CORPUSCULAR VOLUME / MONOCYTE / NEUTROPHIL / NUCLEATED RED BLOOD CELLS / PLATELET COUNT: tissue Blood; for ALANINE AMINOTRANSFERASE / ALBUMIN / ALKALINE PHOSPHATASE / ASPARTATE AMINOTRANSFERASE / BLOOD UREA NITROGEN / CARBON DIOXIDE / CHLORIDE / CHOLESTEROL / CREATINE PHOSPHOKINASE / CREATININE / GLUCOSE / LACTATE DEHYDROGENASE / LIPASE / PHOSPHORUS / POTASSIUM / SODIUM / TOTAL BILIRUBIN / TOTAL PROTEIN / URIC ACID: tissue Plasma
[1] = 0 mg/kg, 72 h, dose level Control, time 3 day
[2] = 0 mg/kg, 120 h, dose level Control, time 5 day
[3] = 100 mg/kg, 72 h, dose level M1, time 3 day

## CC(C)(c1ccc(O)cc1)c1ccc(O)cc1 [BISPHENOL A]
[1]
  ABSOLUTE BASOPHIL: 0 CELLS/uL
  ABSOLUTE EOSINOPHIL: 33 CELLS/uL
  ABSOLUTE LYMPHOCYTE: 9048.5 CELLS/uL
  ABSOLUTE MONOCYTE: 80.17 CELLS/uL
  ABSOLUTE SEGMENTED NEUTROPHIL: 1521.67 CELLS/uL
  BASOPHIL: 0%
  EOSINOPHIL: 0.17%
  ERYTHROCYTE COUNT: 5.46 x10E6/uL
  HEMATOCRIT: 32.87%
  HEMOGLOBIN: 12.95 G/DL
  LEUKOCYTE COUNT: 10.68 x10E3/uL
  LYMPHOCYTE: 86.67%
  MEAN CORPUSCULAR HEMOGLOBIN: 23.72 pg
  MEAN CORPUSCULAR HEMOGLOBIN CONCENTRATION: 39.4 G/DL
  MEAN CORPUSCULAR VOLUME: 60.18 fL
  MONOCYTE: 0.83%
  NEUTROPHIL: 12.33%
  NUCLEATED RED BLOOD CELLS: 0 /100WBC
  PLATELET COUNT: 1211.33 x10E3/uL
  ALANINE AMINOTRANSFERASE: 76.67 u/L
  ALBUMIN: 3.93 G/DL
  ALKALINE PHOSPHATASE: 317.17 u/L
  ASPARTATE AMINOTRANSFERASE: 81.17 u/L
  BLOOD UREA NITROGEN: 12.33 mg/dL
  CARBON DIOXIDE: 31.17 mmol/L
  CHLORIDE: 98.33 MEQ/L
  CHOLESTEROL: 67.17 mg/dL
  CREATINE PHOSPHOKINASE: 312.33 u/L
  CREATININE: 0.19 mg/dL
  GLUCOSE: 165.5 mg/dL
  LACTATE DEHYDROGENASE: 94.5 u/L
  LIPASE: 9.83 u/L
  PHOSPHORUS: 10.1 mg/dL
  POTASSIUM: 5.16 MEQ/L
  SODIUM: 143.02 MEQ/L
  TOTAL BILIRUBIN: 0.2 mg/dL
  TOTAL PROTEIN: 5.88 G/DL
  URIC ACID: 0.68 mg/dL
[2]
  ABSOLUTE BASOPHIL: 0 CELLS/uL
  ABSOLUTE EOSINOPHIL: 14.67 CELLS/uL
  ABSOLUTE LYMPHOCYTE: 9629.83 CELLS/uL
  ABSOLUTE MONOCYTE: 72.5 CELLS/uL
  ABSOLUTE SEGMENTED NEUTROPHIL: 1049.67 CELLS/uL
  BASOPHIL: 0%
  EOSINOPHIL: 0.17%
  ERYTHROCYTE COUNT: 5.36 x10E6/uL
  HEMATOCRIT: 33.82%
  HEMOGLOBIN: 13.48 G/DL
  LEUKOCYTE COUNT: 10.77 x10E3/uL
  LYMPHOCYTE: 90.17%
  MEAN CORPUSCULAR HEMOGLOBIN: 25.28 pg
  MEAN CORPUSCULAR HEMOGLOBIN CONCENTRATION: 39.92 G/DL
  MEAN CORPUSCULAR VOLUME: 63.3 fL
  MONOCYTE: 0.67%
  NEUTROPHIL: 9%
  NUCLEATED RED BLOOD CELLS: 0.17 /100WBC
  PLATELET COUNT: 1275.33 x10E3/uL
  ALANINE AMINOTRANSFERASE: 93.67 u/L
  ALBUMIN: 4.17 G/DL
  ALKALINE PHOSPHATASE: 402.5 u/L
  ASPARTATE AMINOTRANSFERASE: 122.83 u/L
  BLOOD UREA NITROGEN: 14.75 mg/dL
  CARBON DIOXIDE: 26.4 mmol/L
  CHLORIDE: 98.5 MEQ/L
  CHOLESTEROL: 57.5 mg/dL
  CREATINE PHOSPHOKINASE: 305.17 u/L
  CREATININE: 0.21 mg/dL
  GLUCOSE: 142 mg/dL
  LACTATE DEHYDROGENASE: 83.5 u/L
  LIPASE: 85.83 u/L
  PHOSPHORUS: 8.18 mg/dL
  POTASSIUM: 5.46 MEQ/L
  SODIUM: 144 MEQ/L
  TOTAL BILIRUBIN: 0.25 mg/dL
  TOTAL PROTEIN: 5.63 G/DL
  URIC ACID: 0.8 mg/dL
[3]
  ABSOLUTE BASOPHIL: 0 CELLS/uL
  ABSOLUTE EOSINOPHIL: 35.67 CELLS/uL
  ABSOLUTE LYMPHOCYTE: 8627 CELLS/uL
  ABSOLUTE MONOCYTE: 90.33 CELLS/uL
  ABSOLUTE SEGMENTED NEUTROPHIL: 547 CELLS/uL
  BASOPHIL: 0%
  EOSINOPHIL: 0.33%
  ERYTHROCYTE COUNT: 5.35 x10E6/uL
  HEMATOCRIT: 33.47%
  HEMOGLOBIN: 13.5 G/DL
  LEUKOCYTE COUNT: 9.3 x10E3/uL
  LYMPHOCYTE: 92.67%
  MEAN CORPUSCULAR HEMOGLOBIN: 25.27 pg
  MEAN CORPUSCULAR HEMOGLOBIN CONCENTRATION: 40.33 G/DL
  MEAN CORPUSCULAR VOLUME: 62.63 fL
  MONOCYTE: 1%
  NEUTROPHIL: 6%
  NUCLEATED RED BLOOD CELLS: 0 /100WBC
  PLATELET COUNT: 906.33 x10E3/uL
  ALANINE AMINOTRANSFERASE: 76.33 u/L
  ALBUMIN: 4 G/DL
  ALKALINE PHOSPHATASE: 385 u/L
  ASPARTATE AMINOTRANSFERASE: 87 u/L
  BLOOD UREA NITROGEN: 12 mg/dL
  CARBON DIOXIDE: 31.67 mmol/L
  CHLORIDE: 98 MEQ/L
  CHOLESTEROL: 61 mg/dL
  CREATINE PHOSPHOKINASE: 318 u/L
  CREATININE: 0.17 mg/dL
  GLUCOSE: 154 mg/dL
  LACTATE DEHYDROGENASE: 114.33 u/L
  LIPASE: 9.67 u/L
  PHOSPHORUS: 10.63 mg/dL
  POTASSIUM: 5.46 MEQ/L
  SODIUM: 142.7 MEQ/L
  TOTAL BILIRUBIN: 0.17 mg/dL
  TOTAL PROTEIN: 5.73 G/DL
  URIC ACID: 0.77 mg/dL
